Structures are written as SMILES.

In this experiment the target is GST-tagged truncated human mutant G2019S LRRK2 (Homo sapiens, UniProt Q5S007, G2019S). Put plainly: LRRK2 G2019S Km ATP LanthaScreen assay. The settings on record: 134 μM ATP (Km ATP), LRRKtide substrate, mean IC50 values; read-out: LRRK2 pIC50 (converted). It is filed as biochemical. The procedure, abridged: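 Compound preincubated 15 min at room temperature with enzyme in pH 8.5 Tris buffer (10 mM MgCl2). Then a 90 min reaction at ambient temperature with 134 μM (Km) ATP and fluorescein-LRRKtide. EDTA stop, Tb anti-phospho antibody TR-FRET; […]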
On the technique in general: TR-FRET usually uses a lanthanide donor and a delayed reading to cut background.
On to `Cc1c(Nc2ncc3cc(Cl)c(N4CCN(C5COCC5O)CC4)cc3n2)cnn1C1CC1(F)F` (single isomer, unassigned) [Ex-6.44, (3S,4S) or (3R,4R) 4-[4-(6-chloro-2-{[1-(2,2-(R) or (S)difluorocyclopropyl)-5-methyl-1H-pyrazol-4-yl]amino}quinazolin-7-yl)piperazin-1-yl]oxolan-3-ol], for which the IC50 is 6.89 nM.
The same measure for `O[C@@H]1COC[C@@H]1N1CCN(c2cc3nc(Nc4cnn(C5CC5)c4Cl)ncc3cc2Cl)CC1` (single isomer, unassigned) [Ex-3.51, (3R,4R) or (3S,4S) 4-(4-{6-chloro-2-[(5-chloro-1-cyclopropyl-1H-pyrazol-4-yl)amino]quinazolin-7-yl}piperazin-1-yl)oxolan-3-ol]: 16.3 nM.
On to `O[C@@H]1COC[C@@H]1N1CCN(c2nc3nc(Nc4cnn(C5CC5)c4Cl)ncc3cc2Cl)CC1` (single isomer, unassigned) [Ex-16.1, (3S,4S) or (3R, 4R)-4-(4-(6-Chloro-2-((5-chloro-1-cyclopropyl-1H-pyrazol-4-yl)amino)pyrido[2,3-d]pyrimidin-7-yl)piperazin-1-yl)tetrahydrofuran-3-ol], for which the IC50 is 15.6 nM.
As for `Cn1cc(Nc2ncc3cc(Cl)c(N4CCN(C5(C)COC5)CC4)cc3n2)c(C(F)(F)F)n1` [Ex-4.21, 6-chloro-7-[4-(3-methyloxetan-3-yl)piperazin-1-yl]-N-[1-methyl-3-(trifluoromethyl)-1H-pyrazol-4-yl]quinazolin-2-amine], the figure is 36.8 nM; as for `C[C@H]1COC(=O)N1c1ccc2cnc(Nc3cnsc3)nc2c1` [Ex-8.7, (4S)-4-methyl-3-{2-[(1,2-thiazol-4-yl)amino]quinazolin-7-yl}-1,3-oxazolidin-2-one], 5.2 nM.
In the case of `OC1COCC1N1CCN(c2cc3nc(Nc4cnn(C5CC5(F)F)c4Cl)ncc3cc2Cl)CC1` (single isomer, unassigned) [Ex-6.27, (3S,4S) or (3R,4R) 4-[4-(6-chloro-2-{[5-chloro-1-(2,2-(R) or (S)difluorocyclopropyl)-1H-pyrazol-4-yl]amino}quinazolin-7-yl)piperazin-1-yl]oxolan-3-ol], the IC50 is 0.27 nM.
With `CC1CN(C2COCC2O)CCN1c1cc2nc(Nc3cnn(C4CC4)c3Cl)ncc2cc1Cl` (single isomer, unassigned) [Ex-12.9, (3S,4S) or (3R, 4R)-4-((R) or (S)-4-(6-chloro-2-((5-chloro-1-cyclopropyl-1H-pyrazol-4-yl)amino)quinazolin-7-yl)-3-methylpiperazin-1-yl)tetrahydrofuran-3-ol], the IC50 is 8.64 nM.
Consider `CC1(O)CCN(c2c(Cl)cc3cnc(Nc4cnn(C56CC(C5)C6)c4Cl)nc3c2Cl)CC1` [Ex-6.12, 1-(2-{[1-(bicyclo[1.1.1]pentan-1-yl)-5-chloro-1H-pyrazol-4-yl]amino}-6,8-dichloroquinazolin-7-yl)-4-methylpiperidin-4-ol], for which the IC50 is 1.24 nM.
The same measure for `CN(C)[C@@H]1CCN(c2cc3nc(Nc4cnn(CC(F)F)c4Cl)ncc3cc2Cl)C1` [Ex-1.23, 6-chloro-N-[5-chloro-1-(2,2-difluoroethyl)-1H-pyrazol-4-yl]-7-[(3R)-3-(dimethylamino)pyrrolidin-1-yl]quinazolin-2-amine]: 32.6 nM; for `CC1CN(c2cc3nc(Nc4cnn(C5CC5)c4Cl)ncc3cc2Cl)CCN1C1COCC1O` (single isomer, unassigned) [Ex-12.6, (3S,4S) or (3R, 4R)-4-((R) or (S)-4-(4-(6-chloro-2-((5-chloro-1-cyclopropyl-1H-pyrazol-4-yl)amino)quinazolin-7-yl)-2-methylpiperazin-1-yl)tetrahydrofuran-3-ol]: 13.6 nM; for `Cc1nsc(Nc2ncc3ccc(N4C(=O)OC[C@@H]4C)cc3n2)c1C` [Ex-7.12, (4S)-3-{2-[(3,4-dimethyl-1,2-thiazol-5-yl)amino]quinazolin-7-yl}-4-methyl-1,3-oxazolidin-2-one]: 0.625 nM.
As for `CC1(N2CCN(c3nc4nc(Nc5cnn(CC(F)F)c5Cl)ncc4cc3Cl)CC2)COC1` [Ex-15.2, 6-chloro-N-[5-chloro-1-(2,2-difluoroethyl)-1H-pyrazol-4-yl]-7-[4-(3-methyloxetan-3-yl)piperazin-1-yl]pyrido[2,3-d]pyrimidin-2-amine], the IC50 is 60.8 nM.
Turning to `CC1CN(C2CCN(c3cc4nc(Nc5cnn(C6CC6)c5Cl)ncc4cc3Cl)CC2)C1` [Ex-1.43, 6-chloro-N-(5-chloro-1-cyclopropyl-1H-pyrazol-4-yl)-7-[4-(3-methylazetidin-1-yl)piperidin-1-yl]quinazolin-2-amine], the IC50 is 12.7 nM.
Consider `Cc1c(Nc2ncc3cc(Cl)c(N4CCN(C5COCC5O)CC4)cc3n2)cnn1C1CC1(F)F` (single isomer, unassigned) [Ex-6.45, (3S,4S) or (3R,4R) 4-[4-(6-chloro-2-{[1-(2,2-(R) or (S)difluorocyclopropyl)-5-methyl-1H-pyrazol-4-yl]amino}quinazolin-7-yl)piperazin-1-yl]oxolan-3-ol], for which the IC50 is 0.843 nM.
For the molecule `Clc1cc2cnc(Nc3cnn(C4CC4)c3Cl)nc2cc1N1CCN(C2COC2)CC1` [Ex-1.24, 6-chloro-N-(5-chloro-1-cyclopropyl-1H-pyrazol-4-yl)-7-[4-(oxetan-3-yl)piperazin-1-yl]quinazolin-2-amine], the IC50 is 2.59 nM.
As for `CC1(N2CCN(c3cc4nc(Nc5cnn(C6COC6)c5Cl)ncc4cc3Cl)CC2)COC1` [Ex-4.49, 6-chloro-N-[5-chloro-1-(oxetan-3-yl)-1H-pyrazol-4-yl]-7-[4-(3-methyloxetan-3-yl)piperazin-1-yl]quinazolin-2-amine], the figure is 1.87 nM.
With `C[C@]1(O)[C@@H]2CC[C@H]1CN(c1cc3nc(Nc4cnn(C56CC(C5)C6)c4Cl)ncc3cc1Cl)C2` [Ex-3.38, (8-syn)-3-(2-{[1-(bicyclo[1.1.1]pentan-1-yl)-5-chloro-1H-pyrazol-4-yl]amino}-6-chloroquinazolin-7-yl)-8-methyl-3-azabicyclo[3.2.1]octan-8-ol], the IC50 was 6.62 nM.
For `CCn1ncc(Nc2ncc3ccc(N4C(=O)OCC4C4CC4)cc3n2)c1C` (single isomer, unassigned) [Ex-7.16, (R) or (S) 4-cyclopropyl-3-{2-[(1-ethyl-5-methyl-1H-pyrazol-4-yl)amino]quinazolin-7-yl}-1,3-oxazolidin-2-one], the IC50 is 0.625 nM.
`CCNc1cc2nc(Nc3cnn(C4CCN(C5(C)COC5)CC4)c3Cl)ncc2cc1Cl` [Ex-3.45, 6-chloro-N~2~-{5-chloro-1-[1-(3-methyloxetan-3-yl)piperidin-4-yl]-1H-pyrazol-4-yl}-N~7~- ethylquinazoline-2,7-diamine]: the IC50 is 23.5 nM.
As for `Cn1ncc(Nc2ncc3ccc(N4C(=O)C5CCC4C5)cc3n2)c1C(F)(F)F` (single isomer, unassigned) [Ex-4.4, 2-(2-{[1-methyl-5-(trifluoromethyl)-1H-pyrazol-4-yl]amino}quinazolin-7-yl)-2-azabicyclo[2.2.1]heptan-3-one], the figure is 24.6 nM; as for `Clc1cc2cnc(Nc3cnn(C4CC4)c3Cl)nc2cc1N1C[C@@H]2C[C@H]1CN2C1COC1` [Ex-1.33, 6-chloro-N-(5-chloro-1-cyclopropyl-1H-pyrazol-4-yl)-7-[(1S,4S)-5-(oxetan-3-yl)-2,5-diazabicyclo[2.2.1]heptan-2-yl]quinazolin-2-amine], 26.1 nM.
On to `CN1CC2CC1CN2c1cc2nc(Nc3cnn(C4(C)CC4)c3Cl)ncc2cc1Cl` (stereo not drawn) [Ex-4.35, 6-chloro-N-[5-chloro-1-(1-methylcyclopropyl)-1H-pyrazol-4-yl]-7-(5-methyl-2,5-diazabicyclo[2.2.1]heptan-2-yl)quinazolin-2-amine], for which the IC50 is 4.91 nM.
As for `C[C@H]1COC(=O)N1c1ccc2cnc(Nc3ccns3)nc2c1` [Ex-8.8, (4S)-4-methyl-3-{2-[(1,2-thiazol-5-yl)amino]quinazolin-7-yl}-1,3-oxazolidin-2-one], the figure is 5.08 nM; as for `Cc1cc2cnc(Nc3cnn(C4CC4(F)F)c3C)nc2cc1N1CCN(C2COCC2O)CC1` (single isomer, unassigned) [Ex-5.2, (3S,4S) or (3R,4R) 4-(4-(2-((1-(2,2-(R) or (S)difluorocyclopropyl)-5-methyl-1H-pyrazol-4-yl)amino)-6-methylquinazolin-7-yl)piperazin-1-yl)tetrahydrofuran-3-ol], 0.45 nM.
As for `CC1(N2CCN(c3cc4nc(Nc5cnn(C6CC6)c5)ncc4cc3Cl)CC2)COC1` [Ex-4.18, 6-chloro-N-(1-cyclopropyl-1H-pyrazol-4-yl)-7-[4-(3-methyloxetan-3-yl)piperazin-1-yl]quinazolin-2-amine], the figure is 2.39 nM; as for `Cc1c(Nc2ncc3cc(Cl)c(N4CCN(C5COC(C)(C)C5)CC4)cc3n2)cnn1C1CC1` (single isomer, unassigned) [Ex-12.1], 2.93 nM.
As for `Clc1cc2cnc(Nc3cnn(C4CC4)c3Cl)nc2cc1N1CCc2[nH]ncc2C1` [Ex-3.25, 6-chloro-N-(5-chloro-1-cyclopropyl-1H-pyrazol-4-yl)-7-(1,4,6,7-tetrahydro-5H-pyrazolo[4,3-c]pyridin-5-yl) quinazolin-2-amine], the figure is 1.21 nM; as for `CC1(N2CCN(c3cc4nc(Nc5cnn(C6(C)CC6)c5Cl)ncc4cc3Cl)CC2)CCOC1` (stereo not drawn) [Ex-12.4], 3.04 nM.
On to `Clc1cc2cnc(Nc3cnn(C45CC(C4)C5)c3Cl)nc2cc1N1CCC2(CCOC2)CC1` [Ex-3.39, N-[1-(bicyclo[1.1.1]pentan-1-yl)-5-chloro-1H-pyrazol-4-yl]-6-chloro-7-(2-oxa-8-azaspiro[4.5]decan-8-yl) quinazolin-2-amine], for which the IC50 is 3.23 nM.
The same measure for `CC1(N2CCN(c3cc4nc(Nc5cnn(C(C)(C)C)c5Cl)ncc4cc3Cl)CC2)COC1` [Ex-4.31, N-(1-tert-butyl-5-chloro-1H-pyrazol-4-yl)-6-chloro-7-[4-(3-methyloxetan-3-yl)piperazin-1-yl]quinazolin-2-amine]: 1.01 nM.

(Values after patent publication US20230303540A1 (Merck Sharp & Dohme LLC, priority 2020, published 2023).)
